Data taken from ChEMBL document CHEMBL4393714, “Multi-targeting protein-protein interaction inhibitors: Evolution of macrocyclic ligands with embedded carbohydrates (MECs) to improve selectivity” (Eur J Med Chem, 2019).
pIC50, pKi: −log10 of the molar value.

Tests used:
[1] = biological target: Sodium-dependent dopamine transporter (Homo sapiens) (UniProt Q01959); assay: Displacement of [3H] BTCP from human recombinant dopamine […] at 10 uM measured after 120 mins by scintillation counter method relative to control
[2] = biological target: Sodium-dependent noradrenaline transporter (Homo sapiens) (UniProt P23975); assay: Displacement of [3H] nisoxetine from human recombinant norepinephrine transporter at 10 uM measured after 120 mins by scintillation counter method relative to control
Sodium-dependent noradrenaline transporter (Homo sapiens), sequence (P23975 whole entry): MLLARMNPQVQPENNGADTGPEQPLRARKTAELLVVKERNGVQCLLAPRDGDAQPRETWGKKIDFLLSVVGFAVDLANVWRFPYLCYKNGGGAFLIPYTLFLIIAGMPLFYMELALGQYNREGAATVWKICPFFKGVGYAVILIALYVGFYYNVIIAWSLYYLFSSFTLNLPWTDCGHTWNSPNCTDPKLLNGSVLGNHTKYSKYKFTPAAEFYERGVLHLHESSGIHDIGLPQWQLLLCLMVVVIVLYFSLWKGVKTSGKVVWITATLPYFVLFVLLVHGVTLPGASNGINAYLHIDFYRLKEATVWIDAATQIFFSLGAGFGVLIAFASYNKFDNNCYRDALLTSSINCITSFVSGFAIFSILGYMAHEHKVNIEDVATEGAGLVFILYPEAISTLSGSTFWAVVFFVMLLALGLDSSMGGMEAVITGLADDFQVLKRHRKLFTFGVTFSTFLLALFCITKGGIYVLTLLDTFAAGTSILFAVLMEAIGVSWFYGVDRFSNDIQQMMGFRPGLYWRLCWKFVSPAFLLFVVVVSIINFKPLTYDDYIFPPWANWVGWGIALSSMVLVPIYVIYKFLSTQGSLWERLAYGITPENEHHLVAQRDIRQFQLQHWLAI

[3] = biological target: Sodium-dependent serotonin transporter (Homo sapiens, UniProt P31645); assay: Displacement of [3H] imipramine from human recombinant 5-HT transporter at 10 uM measured after 60 mins by scintillation counter method relative to control
Sodium-dependent serotonin transporter, sequence (P31645 whole entry, looked up): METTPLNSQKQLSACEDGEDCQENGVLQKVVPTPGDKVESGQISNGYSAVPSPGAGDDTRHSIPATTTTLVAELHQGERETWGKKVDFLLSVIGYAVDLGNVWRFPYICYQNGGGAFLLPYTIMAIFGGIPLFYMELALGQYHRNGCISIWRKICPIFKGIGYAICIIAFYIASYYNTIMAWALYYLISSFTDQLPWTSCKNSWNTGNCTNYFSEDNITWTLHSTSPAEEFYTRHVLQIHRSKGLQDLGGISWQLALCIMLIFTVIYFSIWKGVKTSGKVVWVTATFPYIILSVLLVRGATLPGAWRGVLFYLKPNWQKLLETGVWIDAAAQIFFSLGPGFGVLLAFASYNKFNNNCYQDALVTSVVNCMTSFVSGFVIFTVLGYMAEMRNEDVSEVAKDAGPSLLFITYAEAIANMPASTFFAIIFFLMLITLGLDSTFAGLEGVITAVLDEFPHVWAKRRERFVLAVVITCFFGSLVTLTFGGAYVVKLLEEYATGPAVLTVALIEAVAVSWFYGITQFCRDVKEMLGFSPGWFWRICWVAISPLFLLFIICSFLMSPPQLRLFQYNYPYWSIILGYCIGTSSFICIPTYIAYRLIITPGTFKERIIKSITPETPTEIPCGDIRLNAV

[4] = biological target: Vasoactive intestinal polypeptide receptor 1 (Homo sapiens) (UniProt P32241); assay: Displacement of [125I] VIP from human recombinant VPAC1 receptor at 10 uM measured after 60 mins by scintillation counter method relative to control
Vasoactive intestinal polypeptide receptor 1 (Homo sapiens), sequence (P32241 whole entry): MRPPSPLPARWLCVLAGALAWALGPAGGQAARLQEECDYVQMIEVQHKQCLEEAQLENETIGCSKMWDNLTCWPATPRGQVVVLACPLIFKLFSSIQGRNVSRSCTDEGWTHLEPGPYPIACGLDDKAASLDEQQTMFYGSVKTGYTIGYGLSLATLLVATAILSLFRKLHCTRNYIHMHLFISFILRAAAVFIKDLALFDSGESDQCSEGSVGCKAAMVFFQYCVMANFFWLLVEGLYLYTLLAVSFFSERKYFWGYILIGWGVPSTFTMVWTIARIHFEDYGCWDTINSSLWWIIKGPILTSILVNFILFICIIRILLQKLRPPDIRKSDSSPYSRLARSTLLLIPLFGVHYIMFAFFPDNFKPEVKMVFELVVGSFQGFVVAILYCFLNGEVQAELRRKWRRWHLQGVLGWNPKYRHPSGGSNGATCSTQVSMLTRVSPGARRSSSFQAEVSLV

[5] = biological target: 5-hydroxytryptamine receptor 7 (Homo sapiens) (UniProt P34969); assay: Displacement of [3H]LSD from human recombinant 5-HT7 receptor at 10 uM measured after 120 mins by scintillation counter method relative to control
[6] = biological target: 5-hydroxytryptamine receptor 6 (Homo sapiens) (UniProt P50406); assay: Displacement of [3H]LSD from human recombinant 5-HT6 receptor at 10 uM measured after 120 mins by scintillation counter method relative to control
5-hydroxytryptamine receptor 6 (Homo sapiens), sequence (P50406 whole entry): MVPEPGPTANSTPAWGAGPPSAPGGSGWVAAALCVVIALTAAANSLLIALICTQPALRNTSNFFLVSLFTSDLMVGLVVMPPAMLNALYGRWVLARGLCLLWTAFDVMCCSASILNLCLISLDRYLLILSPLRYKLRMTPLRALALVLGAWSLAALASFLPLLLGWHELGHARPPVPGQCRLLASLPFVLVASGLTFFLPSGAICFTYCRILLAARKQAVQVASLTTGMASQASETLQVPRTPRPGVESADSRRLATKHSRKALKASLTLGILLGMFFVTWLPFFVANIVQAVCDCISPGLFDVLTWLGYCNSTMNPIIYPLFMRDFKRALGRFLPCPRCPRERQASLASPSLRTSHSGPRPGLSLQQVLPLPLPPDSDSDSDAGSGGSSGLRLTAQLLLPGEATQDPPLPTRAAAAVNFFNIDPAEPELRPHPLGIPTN

[7] = biological target: Prostaglandin E2 receptor EP4 subtype (Homo sapiens) (UniProt P35408); assay: Displacement of [3H]PGE2 from human recombinant EP4 receptor at 10 uM measured after 120 mins by scintillation counter method relative to control
[8] = biological target: Neurotensin receptor type 1 (Homo sapiens) (UniProt P30989); assay: Displacement of [125I]Tyr3-neurotensin from human recombinant neurotensin receptor type1 at 10 uM measured after 60 mins by scintillation counter method relative to control
[9] = biological target: Substance-K receptor (Homo sapiens) (UniProt P21452); assay: Displacement of [125I]NKA from human recombinant NK2 receptor at 10 uM measured after 60 mins by scintillation counter method relative to control
[10] = biological target: Muscarinic acetylcholine receptor M2 (Homo sapiens) (UniProt P08172); assay: Displacement of [3H]AF-DX 384 from human recombinant muscarinic 2 receptor at 10 uM measured after 60 mins by scintillation counter method relative to control
[11] = biological target: Melanocortin receptor 4 (Homo sapiens) (UniProt P32245); assay: Displacement of [125I]NDP-alpha-MSH from human recombinant MC 4 receptor at 10 uM measured after 120 mins by scintillation counter method relative to control
Melanocortin receptor 4 (Homo sapiens), sequence (P32245 whole entry): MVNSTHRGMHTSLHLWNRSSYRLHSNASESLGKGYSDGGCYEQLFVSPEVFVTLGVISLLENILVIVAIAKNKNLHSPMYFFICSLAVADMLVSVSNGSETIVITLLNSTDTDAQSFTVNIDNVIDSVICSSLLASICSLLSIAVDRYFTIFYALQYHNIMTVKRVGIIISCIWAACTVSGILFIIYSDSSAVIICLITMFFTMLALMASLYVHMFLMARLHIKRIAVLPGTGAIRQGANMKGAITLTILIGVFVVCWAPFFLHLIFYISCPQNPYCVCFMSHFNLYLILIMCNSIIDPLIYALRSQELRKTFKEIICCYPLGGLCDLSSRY

[12] = biological target: Histamine H2 receptor (Homo sapiens) (UniProt P25021); assay: Displacement of [125I]APT from human recombinant H2 receptor at 10 uM measured after 120 mins by scintillation counter method relative to control
Histamine H2 receptor (Homo sapiens), sequence (P25021 whole entry): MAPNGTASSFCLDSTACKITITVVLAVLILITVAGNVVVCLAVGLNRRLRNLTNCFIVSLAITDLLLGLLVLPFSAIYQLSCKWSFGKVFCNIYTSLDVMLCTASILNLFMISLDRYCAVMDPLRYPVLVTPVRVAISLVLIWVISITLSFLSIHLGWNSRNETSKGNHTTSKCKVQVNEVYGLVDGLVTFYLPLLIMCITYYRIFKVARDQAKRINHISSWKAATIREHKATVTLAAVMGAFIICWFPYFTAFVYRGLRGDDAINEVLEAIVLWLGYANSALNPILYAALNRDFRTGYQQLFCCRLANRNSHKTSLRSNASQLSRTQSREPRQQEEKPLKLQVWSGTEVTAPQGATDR

[13] = biological target: C-C chemokine receptor type 1 (Homo sapiens) (UniProt P32246); assay: Displacement of [125I]MIP1-alpha from human recombinant CCR1 receptor at 10 uM measured after 120 mins by scintillation counter method relative to control
[14] = biological target: C-X-C chemokine receptor type 2 (Homo sapiens) (UniProt P25025); assay: Displacement of [125I]IL-8 from human recombinant CXCR2 receptor at 10 uM measured after 60 mins by scintillation counter method relative to control
[15] = biological target: Endothelin-1 receptor (Homo sapiens) (UniProt P25101); assay: Displacement of [125I]endothelin-1 from human recombinant ETA receptor at 10 uM measured after 120 mins by scintillation counter method relative to control
[16] = biological target: D(2) dopamine receptor (Homo sapiens) (UniProt P14416); assay: Displacement of [3H]methyl-spiperone from human recombinant D2S receptor at 10 uM measured after 60 mins by scintillation counter method relative to control
D(2) dopamine receptor (Homo sapiens), sequence (P14416 whole entry): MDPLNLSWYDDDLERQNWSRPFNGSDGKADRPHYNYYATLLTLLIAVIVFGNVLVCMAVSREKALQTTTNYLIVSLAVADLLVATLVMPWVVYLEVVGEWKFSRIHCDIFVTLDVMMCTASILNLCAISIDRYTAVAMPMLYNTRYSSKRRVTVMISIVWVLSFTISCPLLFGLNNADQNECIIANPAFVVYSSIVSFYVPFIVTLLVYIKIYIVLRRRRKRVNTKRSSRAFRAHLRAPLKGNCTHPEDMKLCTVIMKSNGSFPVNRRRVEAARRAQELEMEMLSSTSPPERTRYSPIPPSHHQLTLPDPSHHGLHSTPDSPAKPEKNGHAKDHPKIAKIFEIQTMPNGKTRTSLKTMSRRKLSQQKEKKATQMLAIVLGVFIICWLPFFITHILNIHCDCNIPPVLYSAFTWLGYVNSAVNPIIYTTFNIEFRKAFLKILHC

[17] = biological target: Cholecystokinin receptor type A (Homo sapiens) (UniProt P32238); assay: Displacement of [125I]CCK-8s from human recombinant CCK1 receptor at 10 uM measured after 60 mins by scintillation counter method relative to control
Cholecystokinin receptor type A (Homo sapiens), sequence (P32238 whole entry): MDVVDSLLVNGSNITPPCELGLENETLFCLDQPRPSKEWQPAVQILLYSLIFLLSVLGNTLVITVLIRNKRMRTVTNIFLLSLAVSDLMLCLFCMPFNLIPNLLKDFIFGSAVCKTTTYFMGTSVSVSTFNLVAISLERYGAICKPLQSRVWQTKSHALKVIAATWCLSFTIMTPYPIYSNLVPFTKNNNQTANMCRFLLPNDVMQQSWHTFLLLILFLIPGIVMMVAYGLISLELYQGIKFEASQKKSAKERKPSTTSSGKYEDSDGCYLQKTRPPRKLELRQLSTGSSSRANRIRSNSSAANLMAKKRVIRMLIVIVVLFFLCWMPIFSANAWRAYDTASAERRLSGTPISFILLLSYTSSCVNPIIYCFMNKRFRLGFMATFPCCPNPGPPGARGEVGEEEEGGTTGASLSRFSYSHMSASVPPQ

[18] = biological target: Type-1 angiotensin II receptor (Homo sapiens) (UniProt P30556); assay: Displacement of [125I][Sar1,Ile8]-AT-II from human recombinant AT1 receptor at 10 uM measured after 120 mins by scintillation counter method relative to control
Type-1 angiotensin II receptor (Homo sapiens), sequence (P30556 whole entry): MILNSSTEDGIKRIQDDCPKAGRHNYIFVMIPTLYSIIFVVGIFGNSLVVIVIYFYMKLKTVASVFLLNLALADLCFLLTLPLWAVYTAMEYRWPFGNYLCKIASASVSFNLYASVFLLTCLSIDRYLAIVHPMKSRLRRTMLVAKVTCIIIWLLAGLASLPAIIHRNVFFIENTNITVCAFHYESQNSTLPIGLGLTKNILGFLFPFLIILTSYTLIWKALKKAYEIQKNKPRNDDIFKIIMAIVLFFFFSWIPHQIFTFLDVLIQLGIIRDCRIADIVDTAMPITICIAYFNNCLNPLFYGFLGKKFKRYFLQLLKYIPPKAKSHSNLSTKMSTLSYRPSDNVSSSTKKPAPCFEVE

[19] = biological target: Beta-1 adrenergic receptor (Homo sapiens) (UniProt P08588); assay: Displacement of [3H] (-)CGP 12177 from human recombinant beta1 adreno receptor at 10 uM measured after 60 mins by scintillation counter method relative to control
[20] = biological target: Adenosine receptor A3 (Homo sapiens) (UniProt P0DMS8); assay: Displacement of [125I] AB-MECA from human recombinant A3 receptor at 10 uM measured after 120 mins by scintillation counter method relative to control
[21] = biological target: Adenosine receptor A2a (Homo sapiens) (UniProt P29274); assay: Displacement of [3H]CGS 21680 from human recombinant A2A receptor at 10 uM measured after 120 mins by scintillation counter method relative to control
[22] = biological target: Adenosine receptor A1 (Homo sapiens) (UniProt P30542); assay: Displacement of [3H]DPCPX from human recombinant A1 receptor at 10 uM measured after 60 mins by scintillation counter method relative to control
[23] = species on record: Rattus norvegicus; assay: Displacement of [3H]flunitrazepam from rat GABAA Central-type benzodiazepine receptor at 10 uM measured after 120 mins by scintillation counter method relative to control
[24] = biological target: T1, 5-hydroxytryptamine receptor 1A (Homo sapiens, UniProt P08908); assay: Displacement of [3H]OH-DPAT from human recombinant 5-HT1A receptor measured after 60 mins by scintillation counter method
T1 sequence (P08908 whole entry): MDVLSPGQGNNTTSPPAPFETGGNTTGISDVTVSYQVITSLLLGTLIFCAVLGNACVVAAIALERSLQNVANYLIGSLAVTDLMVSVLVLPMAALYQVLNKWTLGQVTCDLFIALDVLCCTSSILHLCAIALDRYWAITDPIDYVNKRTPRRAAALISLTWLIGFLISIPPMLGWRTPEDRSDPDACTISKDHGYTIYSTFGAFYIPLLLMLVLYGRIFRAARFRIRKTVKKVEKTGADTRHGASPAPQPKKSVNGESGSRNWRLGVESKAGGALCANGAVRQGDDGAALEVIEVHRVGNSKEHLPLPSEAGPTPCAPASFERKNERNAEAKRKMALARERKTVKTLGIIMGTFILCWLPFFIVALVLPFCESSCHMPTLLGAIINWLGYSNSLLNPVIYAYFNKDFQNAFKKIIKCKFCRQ

[25] = biological target: 5-hydroxytryptamine receptor 2B (Homo sapiens, UniProt P41595); assay: Antagonist activity at human recombinant 5-HT2B receptor in CHOK1 cells measured after 30 mins by HTRF assay; format: cell-based
5-hydroxytryptamine receptor 2B, sequence (P41595 whole entry): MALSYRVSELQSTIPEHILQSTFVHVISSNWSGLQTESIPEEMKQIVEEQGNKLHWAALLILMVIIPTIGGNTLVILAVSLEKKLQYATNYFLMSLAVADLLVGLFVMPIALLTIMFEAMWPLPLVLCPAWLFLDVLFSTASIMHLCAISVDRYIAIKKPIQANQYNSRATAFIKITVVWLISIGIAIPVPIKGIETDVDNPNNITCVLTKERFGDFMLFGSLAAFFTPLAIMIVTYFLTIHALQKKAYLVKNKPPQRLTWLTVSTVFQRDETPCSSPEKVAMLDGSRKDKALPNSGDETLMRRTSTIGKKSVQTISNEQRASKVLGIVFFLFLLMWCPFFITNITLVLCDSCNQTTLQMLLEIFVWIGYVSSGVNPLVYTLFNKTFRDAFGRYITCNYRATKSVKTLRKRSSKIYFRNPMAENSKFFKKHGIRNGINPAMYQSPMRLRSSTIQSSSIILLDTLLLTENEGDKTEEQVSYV

[26] = Displacement of [3H] batrachotoxinin from rat sodium channel site 2 measured after 60 mins by scintillation counter method
[27] = biological target: Beta-2 adrenergic receptor (Homo sapiens) (UniProt P07550); assay: Agonist activity at human beta 2 adreno receptor at 10 uM relative to control
Beta-2 adrenergic receptor (Homo sapiens), sequence (P07550 whole entry, looked up): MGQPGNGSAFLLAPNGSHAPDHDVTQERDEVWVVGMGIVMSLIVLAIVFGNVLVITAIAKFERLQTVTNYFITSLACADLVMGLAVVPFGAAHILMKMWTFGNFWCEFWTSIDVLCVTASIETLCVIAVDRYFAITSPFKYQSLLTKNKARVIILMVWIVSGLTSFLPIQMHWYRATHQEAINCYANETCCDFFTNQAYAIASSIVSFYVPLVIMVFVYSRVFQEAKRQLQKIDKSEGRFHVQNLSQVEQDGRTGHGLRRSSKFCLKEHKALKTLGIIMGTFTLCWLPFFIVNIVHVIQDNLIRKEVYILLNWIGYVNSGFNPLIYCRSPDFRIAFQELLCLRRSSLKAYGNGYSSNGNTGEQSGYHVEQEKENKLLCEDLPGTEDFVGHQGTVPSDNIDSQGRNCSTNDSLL

Q: With CC(C)CCO[C@@H]1[C@H]2OC(C)(C)O[C@H]2[C@H]2Cn3cc(nn3)COCCCCCCN(CCc3ccc4ccccc4c3)CC[C@H]1O2 as the compound, how does the inhibition [1] read?
A: 64.1%

Q: What about the inhibition [2] of the same compound?
A: 55.7%

Q: What about the inhibition [3] of the same compound?
A: 68.3%

Q: What about the Activity [4] of the same compound?
A: 14.8%

Q: What about the inhibition [5] of the same compound?
A: 22.7%

Q: What about the inhibition [6] of the same compound?
A: 16.1%

Q: What about the inhibition [7] of the same compound?
A: 29.9%

Q: And the Activity [8]?
A: 15.7%

Q: And the inhibition [9]?
A: 98.2%

Q: What about the inhibition [10] of the same compound?
A: 36.2%

Q: And the inhibition [11]?
A: 34%

Q: And the inhibition [12]?
A: 27.4%

Q: And the inhibition [13]?
A: 35.2%

Q: What about the inhibition [14] of the same compound?
A: 20.9%

Q: And the Activity [15]?
A: 7.1%

Q: And the inhibition [16]?
A: 59.6%

Q: What about the inhibition [17] of the same compound?
A: 61.4%

Q: And the inhibition [18]?
A: 17.2%

Q: And the inhibition [19]?
A: 10.6%

Q: What about the inhibition [20] of the same compound?
A: 87.1%

Q: What about the inhibition [21] of the same compound?
A: 14.6%

Q: What about the inhibition [22] of the same compound?
A: 19%

Q: What about the Activity [23] of the same compound?
A: 3.7%

Q: And the pIC50 [24]?
A: 6.31

Q: What about the pKi [24] of the same compound?
A: 6.51

Q: And the pIC50 [25]?
A: 5.80

Q: What about the pKi [25] of the same compound?
A: 6.06

Q: And the pIC50 [26]?
A: 6.92

Q: What about the pKi [26] of the same compound?
A: 7.00

Q: And the inhibition [27]?
A: 3.9%
